Experimental data from article PMC10539439 (Pharmacological Reports, 2023).
“And” between values parts separate entries of the source, which are not always exact repeats. Equal values may be shown once.

Test: Blood pressure of anaesthetized normotensive rats
Assay type: in vivo, rat
Experimental: Eighteen normotensive rats were anaesthetized with thiopental (70 mg/kg) by ip injection. The left carotid artery was cannulated with tubing filled with heparin solution in saline to facilitate pressure measurements using Apparatus PowerLab 4/35 (ADInstruments, Australia). Blood pressure was measured: before ip administration of 4-OH-Guanabenz at the doses of 2 or 5 or 10 mg/kg b.w. or water – time 0 min (control pressure) and continuously during the next 60 min.

[1] = 2 mg/kg, time 0, individual rats 1-6
[2] = 2 mg/kg, time 5, individual rats 1-6
[3] = 2 mg/kg, time 10, individual rats 1-6
[4] = 2 mg/kg, time 15, individual rats 1-6
[5] = 2 mg/kg, time 20, individual rats 1-6
[6] = 2 mg/kg, time 30, individual rats 1-6
[7] = 2 mg/kg, time 40, individual rats 1-6
[8] = 2 mg/kg, time 50, individual rats 1-6
[9] = 2 mg/kg, time 60, individual rats 1-6
[10] = 5 mg/kg, time 0, individual rats 1-6
[11] = 5 mg/kg, time 5, individual rats 1-6
[12] = 5 mg/kg, time 10, individual rats 1-6
[13] = 5 mg/kg, time 15, individual rats 1-6
[14] = 5 mg/kg, time 20, individual rats 1-6
[15] = 5 mg/kg, time 30, individual rats 1-6
[16] = 5 mg/kg, time 40, individual rats 1-6
[17] = 5 mg/kg, time 50, individual rats 1-6
[18] = 5 mg/kg, time 60, individual rats 1-6
[19] = 10 mg/kg, time not printed (1st of 9 lines), individual rats 1-6
[20] = 10 mg/kg, time not printed (2nd of 9 lines), individual rats 1-6
[21] = 10 mg/kg, time not printed (3rd of 9 lines), individual rats 1-6
[22] = 10 mg/kg, time not printed (4th of 9 lines), individual rats 1-6
[23] = 10 mg/kg, time not printed (5th of 9 lines), individual rats 1-6
[24] = 10 mg/kg, time not printed (6th of 9 lines), individual rats 1-6
[25] = 10 mg/kg, time not printed (7th of 9 lines), individual rats 1-6
[26] = 10 mg/kg, time not printed (8th of 9 lines), individual rats 1-6
[27] = 10 mg/kg, time not printed (9th of 9 lines), individual rats 1-6

With `N=C(N)N/N=C/c1c(Cl)cc(O)cc1Cl` [4HOGuanabenz] the diastolic pressure [1] was 104 mmHg and 92 mmHg and 99 mmHg and 108 mmHg and 82 mmHg and 91 mmHg, the systolic pressure [1] was 135 mmHg and 127 mmHg and 134 mmHg and 140 mmHg and 114 mmHg and 116 mmHg and the diastolic pressure [2] was 110 mmHg and 93 mmHg (2×) and 102 mmHg and 104 mmHg and 89 mmHg. For the same compound, the systolic pressure [2] was 140 mmHg and 125 mmHg and 136 mmHg and 137 mmHg and 119 mmHg and 116 mmHg, the diastolic pressure [3] was 105 mmHg and 88 mmHg (2×) and 96 mmHg and 99 mmHg and 92 mmHg and the systolic pressure [3] was 134 mmHg and 120 mmHg and 130 mmHg (2×) and 119 mmHg and 116 mmHg. For the same compound, the diastolic pressure [4] was 103 mmHg and 86 mmHg (2×) and 94 mmHg and 99 mmHg and 89 mmHg, the systolic pressure [4] was 133 mmHg and 117 mmHg and 128 mmHg and 129 mmHg and 115 mmHg and 114 mmHg and the diastolic pressure [5] was 99 mmHg and 84 mmHg and 92 mmHg and 96 mmHg and 86 mmHg and 85 mmHg. For the same compound, the systolic pressure [5] was 128 mmHg and 115 mmHg and 124 mmHg and 125 mmHg and 112 mmHg and 111 mmHg, the diastolic pressure [6] was 96 mmHg and 85 mmHg and 91 mmHg and 94 mmHg and 82 mmHg and 86 mmHg and the systolic pressure [6] was 125 mmHg and 111 mmHg and 120 mmHg and 121 mmHg and 106 mmHg and 107 mmHg. The diastolic pressure [7] was 101 mmHg and 86 mmHg and 90 mmHg and 93 mmHg and 79 mmHg and 85 mmHg, the systolic pressure [7] was 131 mmHg and 116 mmHg and 119 mmHg (2×) and 104 mmHg and 105 mmHg and the diastolic pressure [8] was 99 mmHg and 83 mmHg and 90 mmHg and 95 mmHg and 76 mmHg and 85 mmHg. The systolic pressure [8] was 129 mmHg and 110 mmHg and 116 mmHg and 124 mmHg and 101 mmHg and 104 mmHg, the diastolic pressure [9] was 96 mmHg (2×) and 83 mmHg and 90 mmHg and 73 mmHg and 85 mmHg and the systolic pressure [9] was 125 mmHg and 111 mmHg and 118 mmHg and 122 mmHg and 98 mmHg and 103 mmHg. For the same compound, the diastolic pressure [10] was 73 mmHg and 104 mmHg and 91 mmHg and 101 mmHg and 95 mmHg and 99 mmHg, the systolic pressure [10] was 115 mmHg and 133 mmHg and 114 mmHg and 135 mmHg and 122 mmHg and 131 mmHg and the diastolic pressure [11] was 71 mmHg and 106 mmHg and 112 mmHg and 113 mmHg and 100 mmHg and 108 mmHg. The systolic pressure [11] was 105 mmHg and 136 mmHg and 150 mmHg and 144 mmHg and 133 mmHg and 145 mmHg, the diastolic pressure [12] was 63 mmHg and 92 mmHg and 98 mmHg (2×) and 101 mmHg and 90 mmHg and the systolic pressure [12] was 97 mmHg and 121 mmHg and 129 mmHg and 132 mmHg and 120 mmHg and 130 mmHg. For the same compound, the diastolic pressure [13] was 62 mmHg and 89 mmHg and 87 mmHg and 95 mmHg and 83 mmHg and 91 mmHg, the systolic pressure [13] was 94 mmHg and 117 mmHg and 115 mmHg and 125 mmHg and 110 mmHg and 121 mmHg and the diastolic pressure [14] was 61 mmHg and 89 mmHg and 85 mmHg and 95 mmHg and 79 mmHg and 91 mmHg. For the same compound, the systolic pressure [14] was 93 mmHg and 115 mmHg and 109 mmHg and 124 mmHg and 105 mmHg and 117 mmHg, the diastolic pressure [15] was 63 mmHg and 90 mmHg and 86 mmHg and 93 mmHg (2×) and 77 mmHg and the systolic pressure [15] was 92 mmHg and 117 mmHg and 108 mmHg and 122 mmHg and 103 mmHg and 121 mmHg. For the same compound, the diastolic pressure [16] was 64 mmHg and 87 mmHg and 89 mmHg and 98 mmHg and 78 mmHg and 94 mmHg, the systolic pressure [16] was 92 mmHg and 111 mmHg and 109 mmHg and 127 mmHg and 107 mmHg and 119 mmHg and the diastolic pressure [17] was 65 mmHg and 87 mmHg and 89 mmHg and 91 mmHg and 78 mmHg and 96 mmHg. For the same compound, the systolic pressure [17] was 91 mmHg and 112 mmHg and 110 mmHg and 115 mmHg and 102 mmHg and 124 mmHg, the diastolic pressure [18] was 67 mmHg and 88 mmHg and 84 mmHg and 91 mmHg and 83 mmHg and 93 mmHg and the systolic pressure [18] was 92 mmHg and 112 mmHg and 104 mmHg and 113 mmHg and 111 mmHg and 118 mmHg. For the same compound, the diastolic pressure [19] was 75 mmHg and 81 mmHg and 116 mmHg and 86 mmHg and 114 mmHg and 107 mmHg, the systolic pressure [19] was 113 mmHg and 125 mmHg and 158 mmHg and 100 mmHg and 145 mmHg and 140 mmHg and the diastolic pressure [20] was 95 mmHg and 98 mmHg and 122 mmHg and 99 mmHg and 117 mmHg and 109 mmHg. For the same compound, the systolic pressure [20] was 125 mmHg and 126 mmHg and 177 mmHg and 111 mmHg and 164 mmHg and 139 mmHg, the diastolic pressure [21] was 89 mmHg and 95 mmHg and 109 mmHg and 87 mmHg and 111 mmHg and 107 mmHg and the systolic pressure [21] was 115 mmHg and 124 mmHg and 150 mmHg and 101 mmHg and 151 mmHg and 134 mmHg. For the same compound, the diastolic pressure [22] was 86 mmHg and 95 mmHg and 106 mmHg and 84 mmHg and 107 mmHg and 103 mmHg, the systolic pressure [22] was 112 mmHg and 127 mmHg and 135 mmHg and 96 mmHg and 142 mmHg and 131 mmHg and the diastolic pressure [23] was 84 mmHg (2×) and 92 mmHg and 108 mmHg and 103 mmHg (2×). The systolic pressure [23] was 110 mmHg and 121 mmHg and 133 mmHg and 95 mmHg and 135 mmHg and 129 mmHg, the diastolic pressure [24] was 83 mmHg and 91 mmHg and 105 mmHg and 81 mmHg and 101 mmHg (2×) and the systolic pressure [24] was 108 mmHg and 123 mmHg and 135 mmHg and 91 mmHg and 132 mmHg and 127 mmHg. For the same compound, the diastolic pressure [25] was 82 mmHg and 88 mmHg and 96 mmHg and 80 mmHg and 99 mmHg and 101 mmHg, the systolic pressure [25] was 107 mmHg and 116 mmHg and 126 mmHg and 90 mmHg and 130 mmHg and 124 mmHg and the diastolic pressure [26] was 84 mmHg and 90 mmHg and 106 mmHg and 78 mmHg and 98 mmHg and 97 mmHg. For the same compound, the systolic pressure [26] was 107 mmHg and 121 mmHg and 134 mmHg and 87 mmHg and 129 mmHg and 122 mmHg, the diastolic pressure [27] was 83 mmHg and 92 mmHg and 99 mmHg and 78 mmHg and 101 mmHg and 98 mmHg and the systolic pressure [27] was 107 mmHg and 122 mmHg (2×) and 130 mmHg and 86 mmHg and 131 mmHg.
